Results from patent publication US6630492B1, “Lymphocyte function antigen-1 antagonists” (Novartis AG, priority 1997, dated 2003).
Where two headings read alike, the source gives them in different places.

Experiments:
[1] = biological target: T1, LFA-1/ICAM-1 interactions (Homo sapiens, UniProt P20701); experiment: Jurkat or Hut 78 cell adhesion to ICAM-1; format: cell-based
T1 construct: host or cells: Jurkat or Hut 78 cells
Procedure: Jurkat or Hut 78 cells obtained from ATCC and cultured in RPMI-1640 supplemented with 10% FCS, L-glutamine, non essential amino acids and 0.05 mM 2-mercaptoethanol, are centrifuged, washed once in PBS, and resuspended at 0.5×10^6 cells/ml in binding buffer (1.5% BSA, 5 mM glucose, 2 mM MgCl2, […] MnCl2 in TBS, pH 7) containing 5 μg/ml BCECF-AM (Molecular Probes). The cells are incubated at 37° C. for 30-45 min. in the dark. Then the cells are centrifuged and resuspended in binding buffer by pipetting and immediately used for experiment.
Flat well microtiter plates (NUNC Maxisorp) are coated with 1 μg/ml goat anti-mouse Cκ (Bioreba, South.Biot.) in carbonate buffer (15 mM Na2CO3, 35 mM NaHCO3, pH8.0) 2 hours at 37° C. The plates are emptied and blocked with 1.5% BSA and 0.5% Tween-20 in carbonate buffer for 90 min. at 37° C. The plates are emptied and washed once in TBS containing, 1.5% BSA. Baculovirus derived ICAM-1 mouse Cκ fusion protein (100 ng/ml in TBS/1.5% BSA) is added to the wells. The plates are incubated for 90 min. at 37° C. After three washes with TBS/1.5% BSA, the compound to be tested is diluted in binding buffer (as above but free from BSA and glucose) and added to the wells. Then 100 000 Jurkat or Hut 78 cells/well are added and allowed to adhere for 30 min. at 37° C. Adherent cells are separated from non-adherent cells by 2-4 washes using binding buffer. Adherent cells are quantified with a fluorescence ELISA reader CytofluorII with the filters set at 485 nm and 530 nm emission.

[2] = test system: thioglycollate induced neutrophil migration; experiment: Murine thioglycollate induced peritonitis; format: in vivo; details: s.c., mice
Procedure: Thioglycollate is injected i.p. to mice and immediately thereafter the compound to be tested is given s.c. The mice are killed after 4 hours, the peritoneal cavity lavaged and the total number of neutrophils in the lavage fluid is determined.
In this assay, the compounds of the invention, e.g. mevinolins inhibit thioglycollate induced neutrophil migration when administered s.c. at a dose of from 0.001-50 mg/kg.

LFA-1 I-domain = biological target: T2, LFA-1 I-domain (Homo sapiens, UniProt P20701); experiment: X-ray analysis of the complex of LFA-1 I-domain with mevinolin; format: binding
T2 construct: amino acid residues 128 to 309 of the α-chain of LFA-1 which corresponds to the I-domain
T2 sequence (P20701 153-334): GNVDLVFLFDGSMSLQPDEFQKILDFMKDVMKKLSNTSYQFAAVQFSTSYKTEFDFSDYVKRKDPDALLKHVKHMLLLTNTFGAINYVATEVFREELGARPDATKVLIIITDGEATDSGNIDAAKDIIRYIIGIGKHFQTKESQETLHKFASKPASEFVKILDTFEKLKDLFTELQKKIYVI
Procedure: The complex, LFA-1 I-domain/mevinolin, is prepared by adding mevinolin (100 mM solution in DMSO) to the protein solution (12.7 mg/ml, 100 mM MgSO4), followed by crystallization. The structure is solved by molecular replacement (using the coordinates of apo LFA-1 I domain, A. Qu & D. Leahy, above) and has been refined to a R factor of 19.4% (Rfree=25.9%) using X-ray amplitudes in the resolution range 8 Å-2.6 Å. The final model contains 2×182 amino acids (amino acid residues 128 to 309 of the α-chain of LFA-1 which corresponds to the I-domain), 2 mevinolin molecules and a total of 86 water molecules.

[3] = Jurkat cells, adhesion to ICAM-1, read-out: IC50 in the Jurkat Cell Assay

T1 sequence (P20701 26-1170): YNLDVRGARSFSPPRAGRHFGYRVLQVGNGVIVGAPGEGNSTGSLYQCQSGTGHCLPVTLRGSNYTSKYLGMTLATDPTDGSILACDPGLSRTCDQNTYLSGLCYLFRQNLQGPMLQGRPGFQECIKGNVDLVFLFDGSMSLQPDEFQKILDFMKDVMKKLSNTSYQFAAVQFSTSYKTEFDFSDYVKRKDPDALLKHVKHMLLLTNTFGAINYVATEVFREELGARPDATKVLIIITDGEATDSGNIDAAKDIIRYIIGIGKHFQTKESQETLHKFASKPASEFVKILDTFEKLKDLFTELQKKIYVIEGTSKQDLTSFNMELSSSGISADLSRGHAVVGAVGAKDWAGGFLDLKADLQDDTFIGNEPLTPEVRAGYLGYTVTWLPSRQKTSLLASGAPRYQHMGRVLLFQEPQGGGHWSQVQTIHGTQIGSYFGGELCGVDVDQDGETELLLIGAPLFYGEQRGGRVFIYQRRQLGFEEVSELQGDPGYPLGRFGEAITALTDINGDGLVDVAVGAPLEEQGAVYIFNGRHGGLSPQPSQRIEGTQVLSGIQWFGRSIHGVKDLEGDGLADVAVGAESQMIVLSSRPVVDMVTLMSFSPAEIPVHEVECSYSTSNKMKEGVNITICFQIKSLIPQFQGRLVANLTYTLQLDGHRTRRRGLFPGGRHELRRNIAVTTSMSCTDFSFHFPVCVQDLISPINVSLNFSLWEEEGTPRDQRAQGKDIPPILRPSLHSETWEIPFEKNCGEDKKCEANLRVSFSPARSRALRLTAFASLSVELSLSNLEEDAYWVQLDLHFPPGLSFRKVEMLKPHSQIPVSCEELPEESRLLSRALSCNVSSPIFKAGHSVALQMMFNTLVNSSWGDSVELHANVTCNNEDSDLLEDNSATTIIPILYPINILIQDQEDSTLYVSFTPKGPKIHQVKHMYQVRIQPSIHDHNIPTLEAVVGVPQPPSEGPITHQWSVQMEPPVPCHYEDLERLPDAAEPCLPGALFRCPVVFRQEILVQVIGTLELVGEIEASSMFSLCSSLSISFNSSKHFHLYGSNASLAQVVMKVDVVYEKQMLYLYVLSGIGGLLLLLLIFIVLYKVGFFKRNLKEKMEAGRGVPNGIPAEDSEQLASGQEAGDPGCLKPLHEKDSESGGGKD
T1 sequence (P05107 23-769 partner): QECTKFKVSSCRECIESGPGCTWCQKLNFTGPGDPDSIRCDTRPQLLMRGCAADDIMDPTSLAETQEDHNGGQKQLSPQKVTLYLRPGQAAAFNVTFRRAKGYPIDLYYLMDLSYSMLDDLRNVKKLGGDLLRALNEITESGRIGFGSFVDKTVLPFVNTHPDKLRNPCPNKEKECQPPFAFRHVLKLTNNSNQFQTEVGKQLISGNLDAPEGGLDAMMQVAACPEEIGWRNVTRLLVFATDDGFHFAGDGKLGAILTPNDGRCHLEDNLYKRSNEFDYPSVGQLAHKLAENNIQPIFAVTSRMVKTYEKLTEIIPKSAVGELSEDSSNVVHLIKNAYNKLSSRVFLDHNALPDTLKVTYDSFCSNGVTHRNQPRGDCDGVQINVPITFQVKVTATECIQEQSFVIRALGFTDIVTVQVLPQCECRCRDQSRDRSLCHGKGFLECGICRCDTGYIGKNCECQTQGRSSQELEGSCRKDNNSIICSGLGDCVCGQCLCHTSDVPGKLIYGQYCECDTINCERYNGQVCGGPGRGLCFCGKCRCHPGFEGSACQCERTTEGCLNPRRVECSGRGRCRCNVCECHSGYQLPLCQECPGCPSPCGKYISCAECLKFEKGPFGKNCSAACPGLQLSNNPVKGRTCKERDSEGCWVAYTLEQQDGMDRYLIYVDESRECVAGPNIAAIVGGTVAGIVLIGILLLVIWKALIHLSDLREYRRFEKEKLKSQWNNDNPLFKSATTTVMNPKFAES

## CC[C@H](C)C(=O)O[C@H]1C[C@@H](C)C=C2C=C[C@H](C)[C@H](CCC(O)CC(O)CC(=O)N3CCC4(CC3)OCCO4)[C@H]21 (stereo partly shown) [Example 33]
[1]
  IC50: 1.2 µM
[2]; 0.1 mg/kg
  inhibition of neutrophil migration: fully inhibit

## CC[C@H](C)C(=O)O[C@H]1C[C@@H](C)C=C2C=C[C@H](C)[C@H](CCC(O)CC(O)CC(=O)NCc3ccccc3OC)[C@H]21 (stereo partly shown) [Example 15]
[1]; [3]
  IC50: 2.2 µM

## CC[C@H](C)C(=O)O[C@H]1C[C@@H](C)C=C2C=C[C@H](C)[C@H](CC[C@@H]3C[C@@H](O)CC(=O)O3)[C@H]21 [mevinolin, Mevinolin]
LFA-1 I-domain; X-ray analysis of the complex
  binding to the MIDAS-site: does not bind to the MIDAS-site
LFA-1 I-domain; between the C-terminal helix α7 and one side of the β-sheet
  binding to the LFA-1 I-domain (south pole pocket): binds to the LFA-1 I-domain

## CCC(C)C(=O)OC1CC(C)C=C2C=CC(C)C(CCC(O)CC(CC(=O)NCCO)NCCO)C21 (stereo not shown) [Example 6, 2-Methyl-butyric Acid 8-[3-Hydroxy-5-(2-hydroxy-ethylamino)-6-(2-hydroxy-ethylcarbamoyl)-hexyl]-3,7-dimethyl-1,2,3,7,8,8a-hexahydro-naphthalen-1-yl Ester]
[1]; [3]
  IC50: 4 µM
[2]; 1 mg/kg
  inhibition of neutrophil migration: fully inhibit
